Data from patent US7018659B2, “Anti-arrhythmic pharmaceutical composition and a process thereof” (Council of Scientific & Industrial Research, priority 2002, dated 2006).

Key:
[1] = test system: male Wister albino rats; assay: Electrocardiograph studies (hypodynamic heart), aconitine-induced arrhythmia in anaesthetized rats; format: in vivo; conditions: aconitine 50 μg/100 g infused through the jugular vein
Experimental: Electrocardiograph studies were conducted on urethane (1.75 g/kg, i.p) anaesthetized male Wister albino rats (150±10 g). Recordings were obtained in lead II. Aconitine (50 μg/100 g) was infused through the jugular vein and arrhythmia was induced within 30±5 mins.

[2] = test system: isolated guineapig auricle; assay: Aconitine-induced arrhythmia in isolated guineapig auricle; conditions: aconitine 15 ng/ml
Experimental: Isolated guineapig auricle was prepared after Burn J H (1952). Aconitine (15 ng/ml) when added, set up arrhythmia within (40±5) mins. This novel compound (5 ng/ml) could revert arrhythmia to normal within (45±4.2) mins. The normal functioning state was maintained, observed up to 6 hrs. Again, arrhythmia was set in isolated auricle with 2.25 mM CaCl2. Arrhythmia was reverted to normal with the novel compound (5 ng/ml) within (30±3.36) mins of observation.

SMILES: CCN1C[C@]2(COC)[C@H](O)C[C@H](OC)[C@@]34[C@@H]5C[C@@]6(O)[C@H](OC(=O)c7ccccc7)[C@@H]5[C@@](OC(C)=O)([C@@H]([C@H](OC)[C@H]23)[C@@H]14)[C@@H](O)[C@@H]6OC [Aconitine]
- time to induction of arrhythmia [1]: ≤ 30 ± 5 min
- time to set up arrhythmia [2]: ≤ 40 ± 5 min
